# Patent US20210285024A1, “In vitro Screening Assay of TCPase Modulators” (CENTRE NATIONAL DE LA RECHERCHE SCIENTIFIQUE (CNRS), priority 2018, published 2021)
# Tests used:
# [1] = test system: HEK293T cells deficient for VASH1 and VASH2; conditions: Nieuwenhuis et al., 2017; cited from earlier work
# [2] = target: SVBP-VASH2 complex (Homo sapiens, UniProt Q86V25); assay: Detyrosination assay using tubulin purified from Sf9 cells and recombinant SVBP-VASH2 complex; conditions: 0.1 μM and 10 μM; 15 min at 37° C.; microtubules from Sf9 tubulin; western blot
# Chain of SVBP-VASH2 complex (Q86V25 whole entry): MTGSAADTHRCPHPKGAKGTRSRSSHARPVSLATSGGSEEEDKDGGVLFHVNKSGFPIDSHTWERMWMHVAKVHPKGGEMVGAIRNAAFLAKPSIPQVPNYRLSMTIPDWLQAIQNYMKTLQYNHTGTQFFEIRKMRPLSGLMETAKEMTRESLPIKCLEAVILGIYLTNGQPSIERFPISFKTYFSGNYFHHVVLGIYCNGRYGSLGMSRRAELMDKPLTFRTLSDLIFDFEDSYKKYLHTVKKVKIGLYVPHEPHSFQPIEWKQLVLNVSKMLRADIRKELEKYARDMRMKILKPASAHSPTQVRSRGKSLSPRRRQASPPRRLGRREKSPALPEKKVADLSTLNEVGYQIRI
# Chain of SVBP-VASH2 complex (Q8N300 whole entry partner): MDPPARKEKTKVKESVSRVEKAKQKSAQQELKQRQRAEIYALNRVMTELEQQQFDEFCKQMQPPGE
# Method: FIG. 17: Detyrosination assay performed using tubulin purified from Sf9 cells and recombinant SVBP-VASH2 complex in absence or presence of putative inhibitors of detyrosinase. […] FIG. 17b: Western blot. FIG. 17c: Representation of relative optical density (detyrosination/tubulin).
# A negative control sample consisting of the tubulin in the reaction buffer in absence of the detyrosinase (SVBP-VASH2 complex) was also analysed by western blotting (FIG. 17b).
SMILES,alpha-tubulin detyrosination [1],reduction of the detyrosinating activity of SVBP-VASH2 complex [2]
"CC(=O)O[C@H]1C(=O)[C@@]2(C)[C@H]([C@H](OC(=O)c3ccccc3)[C@]3(O)C[C@H](OC(=O)[C@H](O)[C@@H](NC(=O)c4ccccc4)c4ccccc4)C(C)=C1C3(C)C)[C@]1(OC(C)=O)CO[C@@H]1C[C@@H]2O [Taxol, paclitaxel]",robust increase,–
"C=C1C(=O)O[C@@H]2/C=C(\C)CC/C=C(\C)CC[C@@H]12 [costunolide, Costunolide]",–,did not result in any significant reduction
"C=C1C(=O)O[C@@H]2C[C@@]3(C)CCC[C@H](C)C3=C[C@H]12 [alantolactone, Alantolactone]",–,did not result in any significant reduction
